Results published in publication PMC10643470, “Knockout or inhibition of USP30 protects dopaminergic neurons in a Parkinson’s disease mouse model” (Nature Communications, 2023).
Where “and” joins values, the source holds several entries; their conditions need not be identical. Equal entries are not always repeated. Where two headings read alike, the source gives them in different places.

Key:
[1] = tested on: TOM20 ubiquitylation in HeLa cells overexpressing PARKIN; test: Cell TOM20 ubiquitination assay (HeLa YFP-Parkin + A/O); format: cell-based, human; settings: for EC50: Homo sapiens, 1.5 h
Protocol: Hela cells overexpressing YFP-Parkin were treated with 1 µM Antimycin A and 1 µM Oligomycin A (AA/OA) and test compound or DMSO for 90 mins. Following treatment, media was removed, and cells were washed in DPBS and then lysed in NP40 lysis buffer on ice. […] The bands corresponding to all forms of ubiquitylated TOM20 were quantified and normalized to the same bands for AA/OA treated cells.

[2] = Mouse blood and prefrontal cortex microdialysis pharmacokinetics (Kpu,u); format: in vivo; settings: single 10 mg/kg oral dose, at the 60-min time point
Protocol: Mouse Kpu,u estimates were calculated from blood and prefrontal cortex compound profiles following oral dosing of 10 or 30 mg/kg by gavage, with sequential blood sampling from the jugular vein and sequential brain interstitial fluid sampling via a microdialysis probe in the prefrontal cortex.

[3] = target: USP1 (Homo sapiens, UniProt O94782); test: DUB/cathepsin selectivity biochemical assay
[4] = target: USP16 (Homo sapiens, UniProt Q9Y5T5); test: DUB/cathepsin selectivity biochemical assay
[5] = target: T1, mouse USP30 (Mus musculus, UniProt Q3UN04); test: USP30 biochemical fluorescence polarization assay (mouse); settings: read-out: Mouse USP30 FP assay (IC50)
T1 construct: Mouse USP30(57-517) (Boston Biochem, #E-582M); purchased Boston Biochem E-582M
T1 sequence (Q3UN04 57-517): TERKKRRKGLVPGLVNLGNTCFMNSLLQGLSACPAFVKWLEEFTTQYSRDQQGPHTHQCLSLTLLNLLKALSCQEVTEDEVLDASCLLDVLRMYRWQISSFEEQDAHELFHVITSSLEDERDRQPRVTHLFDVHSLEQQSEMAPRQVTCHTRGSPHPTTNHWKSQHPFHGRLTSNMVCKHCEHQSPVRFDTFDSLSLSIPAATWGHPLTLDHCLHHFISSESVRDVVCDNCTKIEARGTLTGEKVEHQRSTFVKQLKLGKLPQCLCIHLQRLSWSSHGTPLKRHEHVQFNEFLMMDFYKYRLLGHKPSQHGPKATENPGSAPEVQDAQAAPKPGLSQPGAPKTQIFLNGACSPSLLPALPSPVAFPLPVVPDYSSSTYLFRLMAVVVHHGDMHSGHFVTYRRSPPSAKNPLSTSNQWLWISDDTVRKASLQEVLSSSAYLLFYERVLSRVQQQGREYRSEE
Protocol: USP30 enzyme was diluted in reaction buffer (40 mM Tris HCl, pH 7.5, 0.005% Tween 20, 0.5 mg/ml BSA, 5 mM BME) to achieve a final concentration of 8 nM for human USP30 and 10 nM for mouse USP30, the compound was added and incubated for 30 min at room temp then reactions initiated by addition of Ub-Lys-TAMRA (final conc of 50 nM). Fluorescence was measured immediately after the addition of substrate and following a 2 h incubation on Pherastar Plus or FSX with λ Excitation 540 nm and λ Emission 590 nm.

[6] = target: USP32 (Homo sapiens, UniProt Q8NFA0); test: DUB/cathepsin selectivity biochemical assay
USP32, sequence (Q8NFA0 whole entry, species assumed): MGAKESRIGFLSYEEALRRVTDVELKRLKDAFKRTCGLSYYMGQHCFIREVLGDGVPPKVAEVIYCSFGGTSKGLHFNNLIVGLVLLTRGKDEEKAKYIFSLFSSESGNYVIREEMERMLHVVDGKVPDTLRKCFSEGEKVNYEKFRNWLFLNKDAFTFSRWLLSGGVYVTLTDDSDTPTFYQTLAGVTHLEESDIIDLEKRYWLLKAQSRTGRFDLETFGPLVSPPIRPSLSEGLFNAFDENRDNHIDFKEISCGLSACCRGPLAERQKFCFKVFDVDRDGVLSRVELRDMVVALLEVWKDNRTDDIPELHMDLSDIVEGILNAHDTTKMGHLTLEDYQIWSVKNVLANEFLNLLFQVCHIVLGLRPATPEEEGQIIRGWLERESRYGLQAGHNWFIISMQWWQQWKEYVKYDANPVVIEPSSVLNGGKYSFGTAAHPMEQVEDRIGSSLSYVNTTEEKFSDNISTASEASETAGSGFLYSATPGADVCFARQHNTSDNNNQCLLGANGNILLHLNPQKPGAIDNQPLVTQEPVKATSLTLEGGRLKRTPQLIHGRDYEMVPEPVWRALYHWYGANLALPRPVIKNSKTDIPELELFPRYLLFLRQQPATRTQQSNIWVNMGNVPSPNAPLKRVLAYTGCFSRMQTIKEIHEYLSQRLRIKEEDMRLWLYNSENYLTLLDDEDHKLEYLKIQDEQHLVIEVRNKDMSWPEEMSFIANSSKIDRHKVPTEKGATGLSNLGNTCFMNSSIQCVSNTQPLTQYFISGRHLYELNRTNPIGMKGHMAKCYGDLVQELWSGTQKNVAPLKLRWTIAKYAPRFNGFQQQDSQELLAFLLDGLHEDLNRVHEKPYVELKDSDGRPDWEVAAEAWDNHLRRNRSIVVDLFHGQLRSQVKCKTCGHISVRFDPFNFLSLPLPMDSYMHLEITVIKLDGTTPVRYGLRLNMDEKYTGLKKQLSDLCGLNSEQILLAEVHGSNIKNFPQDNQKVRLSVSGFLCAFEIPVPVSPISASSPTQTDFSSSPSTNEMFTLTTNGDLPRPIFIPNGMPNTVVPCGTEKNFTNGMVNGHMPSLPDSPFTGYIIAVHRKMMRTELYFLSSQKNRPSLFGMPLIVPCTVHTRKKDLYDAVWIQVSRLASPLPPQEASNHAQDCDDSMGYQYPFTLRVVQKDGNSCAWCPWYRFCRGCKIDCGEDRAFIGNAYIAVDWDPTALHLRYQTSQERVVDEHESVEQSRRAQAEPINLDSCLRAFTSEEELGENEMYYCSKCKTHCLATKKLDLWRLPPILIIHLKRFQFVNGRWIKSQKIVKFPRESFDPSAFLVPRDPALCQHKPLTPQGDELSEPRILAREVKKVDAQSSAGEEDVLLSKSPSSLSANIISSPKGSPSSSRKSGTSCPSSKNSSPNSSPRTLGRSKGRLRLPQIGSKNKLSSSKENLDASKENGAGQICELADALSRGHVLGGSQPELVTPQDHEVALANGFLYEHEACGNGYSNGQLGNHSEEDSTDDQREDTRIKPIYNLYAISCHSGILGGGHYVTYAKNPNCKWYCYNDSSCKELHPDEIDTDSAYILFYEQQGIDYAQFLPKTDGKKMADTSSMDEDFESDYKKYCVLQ

[7] = target: Cathepsin L (Homo sapiens, UniProt P07711); test: DUB/cathepsin selectivity biochemical assay; settings: Supplementary Fig. 6a; read-out: Selectivity vs Cathepsins (IC50), Cath L
Cathepsin L, sequence (P07711 114-333, species assumed): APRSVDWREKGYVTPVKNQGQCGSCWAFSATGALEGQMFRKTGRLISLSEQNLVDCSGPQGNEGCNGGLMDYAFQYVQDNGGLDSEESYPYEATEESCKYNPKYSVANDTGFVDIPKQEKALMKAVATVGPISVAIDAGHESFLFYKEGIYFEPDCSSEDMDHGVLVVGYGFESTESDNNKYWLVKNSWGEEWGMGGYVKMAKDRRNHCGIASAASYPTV

[8] = target: USP7 (Homo sapiens, UniProt Q93009); test: DUB/cathepsin selectivity biochemical assay
[9] = tested on: TOM20-ubiquitylation in alpha-synuclein A53T mutated iPSC-derived dopaminergic neurons; test: TOM20-ubiquitylation in A53T iPSC-derived dopaminergic neurons; format: cell-based, human; settings: no exogenous stimuli
Description: Donor-derived DopaNeuron lines were generated from source material provided by the Parkinson’s Progression Markers Initiative (PPMI) through The Michael J. Fox Foundation. Human iPS cells-derived DopaNeurons were purchased from Fujifilm/Cellular Dynamics. Apparently healthy normal (AHN) (catalog # R1088) or alpha-synuclein A53T mutated (A53T) (catalog # R1109) iPSC-derived dopaminergic neurons (dopaneurons) were thawed from liquid nitrogen. 400 000 viable (counted using a cell counter) dopaneurons […] were plated per well into 24 well plates on day 0 in complete maintenance medium (CMM).
A half-medium change was performed on the cells on Day 3 with CMM. On Day 5 cells were half-medium changed with complete brainphys medium. […] Cells were given half medium changes with or without compounds (depending on whether treatments with compound had started) every 2-3 days.

[10] = target: USP25 (Homo sapiens, UniProt Q9UHP3); test: DUB/cathepsin selectivity biochemical assay
USP25, sequence (Q9UHP3 whole entry, species assumed): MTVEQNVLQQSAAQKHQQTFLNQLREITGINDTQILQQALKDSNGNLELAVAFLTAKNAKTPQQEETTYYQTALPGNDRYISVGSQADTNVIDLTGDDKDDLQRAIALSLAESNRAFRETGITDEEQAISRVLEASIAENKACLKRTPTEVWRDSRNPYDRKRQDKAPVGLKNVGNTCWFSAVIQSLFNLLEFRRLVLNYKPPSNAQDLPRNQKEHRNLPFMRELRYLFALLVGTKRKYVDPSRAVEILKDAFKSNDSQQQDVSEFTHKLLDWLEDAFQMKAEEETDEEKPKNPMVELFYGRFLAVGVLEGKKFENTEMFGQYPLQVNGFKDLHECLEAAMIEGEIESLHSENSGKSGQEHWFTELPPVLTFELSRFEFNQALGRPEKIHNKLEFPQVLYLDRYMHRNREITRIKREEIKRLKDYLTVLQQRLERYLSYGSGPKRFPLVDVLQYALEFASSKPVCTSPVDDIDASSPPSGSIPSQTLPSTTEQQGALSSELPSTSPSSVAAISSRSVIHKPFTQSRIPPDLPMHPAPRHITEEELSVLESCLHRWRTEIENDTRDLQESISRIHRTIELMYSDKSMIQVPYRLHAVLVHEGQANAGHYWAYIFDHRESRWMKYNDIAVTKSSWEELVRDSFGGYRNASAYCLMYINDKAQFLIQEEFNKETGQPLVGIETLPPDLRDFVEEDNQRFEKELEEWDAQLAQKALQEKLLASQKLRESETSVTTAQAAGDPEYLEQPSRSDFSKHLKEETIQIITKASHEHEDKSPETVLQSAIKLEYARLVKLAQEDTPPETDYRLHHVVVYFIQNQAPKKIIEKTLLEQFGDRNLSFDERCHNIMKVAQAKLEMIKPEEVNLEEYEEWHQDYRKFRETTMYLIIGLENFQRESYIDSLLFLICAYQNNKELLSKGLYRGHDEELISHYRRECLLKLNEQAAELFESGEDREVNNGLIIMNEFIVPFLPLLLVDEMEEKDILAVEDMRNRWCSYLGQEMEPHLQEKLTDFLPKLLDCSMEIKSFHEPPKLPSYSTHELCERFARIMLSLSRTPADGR

[11] = target: USP48 (Homo sapiens, UniProt Q86UV5); test: DUB/cathepsin selectivity biochemical assay
[12] = target: T2, USP21 CD (Homo sapiens, UniProt Q9UK80); test: DUB/cathepsin selectivity biochemical assay
T2 construct: USP21 CD
T2 sequence (Q9UK80 212-558 limits assumed): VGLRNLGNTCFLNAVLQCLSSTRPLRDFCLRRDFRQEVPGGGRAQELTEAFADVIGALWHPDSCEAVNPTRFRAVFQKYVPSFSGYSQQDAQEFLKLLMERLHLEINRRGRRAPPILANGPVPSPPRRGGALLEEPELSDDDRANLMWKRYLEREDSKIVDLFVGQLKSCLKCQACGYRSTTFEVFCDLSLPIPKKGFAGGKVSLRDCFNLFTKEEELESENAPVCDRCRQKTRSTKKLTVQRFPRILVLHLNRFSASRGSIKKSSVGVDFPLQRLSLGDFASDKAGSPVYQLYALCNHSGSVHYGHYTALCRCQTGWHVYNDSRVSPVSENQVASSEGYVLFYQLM

[13] = target: USP20 (Homo sapiens, UniProt Q9Y2K6); test: DUB/cathepsin selectivity biochemical assay
USP20, sequence (Q9Y2K6 whole entry, species assumed): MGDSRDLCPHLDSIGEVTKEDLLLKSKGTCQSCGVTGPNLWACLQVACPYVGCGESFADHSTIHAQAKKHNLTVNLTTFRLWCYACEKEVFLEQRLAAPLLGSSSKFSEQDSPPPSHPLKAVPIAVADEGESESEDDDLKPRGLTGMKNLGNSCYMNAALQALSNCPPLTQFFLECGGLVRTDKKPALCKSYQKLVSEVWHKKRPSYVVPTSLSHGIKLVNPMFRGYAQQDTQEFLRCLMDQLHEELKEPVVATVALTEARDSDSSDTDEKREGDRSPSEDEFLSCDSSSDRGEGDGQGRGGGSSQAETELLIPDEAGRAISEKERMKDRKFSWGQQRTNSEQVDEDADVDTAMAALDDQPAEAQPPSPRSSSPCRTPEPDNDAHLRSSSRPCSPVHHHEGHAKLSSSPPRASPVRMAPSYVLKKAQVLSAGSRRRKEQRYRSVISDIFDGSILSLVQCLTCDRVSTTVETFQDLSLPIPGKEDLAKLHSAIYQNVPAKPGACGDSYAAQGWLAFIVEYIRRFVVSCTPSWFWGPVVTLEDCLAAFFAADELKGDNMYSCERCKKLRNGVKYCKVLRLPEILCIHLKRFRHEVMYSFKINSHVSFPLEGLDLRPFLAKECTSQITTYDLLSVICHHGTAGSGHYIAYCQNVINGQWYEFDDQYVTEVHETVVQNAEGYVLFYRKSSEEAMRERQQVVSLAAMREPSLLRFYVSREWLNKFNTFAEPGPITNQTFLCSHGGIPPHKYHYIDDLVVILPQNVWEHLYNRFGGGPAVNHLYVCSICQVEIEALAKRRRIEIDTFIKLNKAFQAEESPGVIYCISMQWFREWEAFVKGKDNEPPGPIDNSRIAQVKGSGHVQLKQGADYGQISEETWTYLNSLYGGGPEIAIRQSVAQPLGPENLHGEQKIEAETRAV

[14] = target: OTUD6B (Homo sapiens, UniProt Q8N6M0); test: DUB/cathepsin selectivity biochemical assay
OTUD6B, sequence (Q8N6M0 whole entry, species assumed): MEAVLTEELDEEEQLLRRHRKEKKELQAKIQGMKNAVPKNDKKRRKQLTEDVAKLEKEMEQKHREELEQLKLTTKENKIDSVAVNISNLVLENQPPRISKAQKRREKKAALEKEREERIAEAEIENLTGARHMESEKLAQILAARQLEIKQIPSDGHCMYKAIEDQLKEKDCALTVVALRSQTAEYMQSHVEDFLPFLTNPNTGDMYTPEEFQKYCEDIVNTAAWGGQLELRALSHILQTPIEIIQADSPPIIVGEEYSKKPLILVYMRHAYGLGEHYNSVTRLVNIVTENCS

[15] = target: USP47 (Homo sapiens, UniProt Q96K76); test: DUB/cathepsin selectivity biochemical assay
[16] = Mouse pharmacokinetics (IV clearance, oral bioavailability); format: in vivo; settings: blood
[17] = target: CEZANNE1 (Homo sapiens, UniProt Q6GQQ9); test: DUB/cathepsin selectivity biochemical assay
[18] = In-life whole blood compound levels in the A53T model; format: in vivo, mouse; settings: for Blood exposure / Cmax: A53T model; for Blood exposure: 0.5-6 h sampling; for In-life whole blood compound level (Figure 4d): individual animals; for Cmax: mouse, whole blood, seven days before end of study
Protocol: In-life blood samples were taken at 0.5, 1, 2, 4, 6 h, timed relative to the first daily dose, from n = 3 animals per time point to give a composite profile from animals in each group. The in-life blood samples were collected from the saphenous vein (20 µL), transferred in an Eppendorf tube immediately and mixed with an equal volume (20 µL) of ice-cold Serine esterase inhibitor, trichlorfon (100 µM), the sample was frozen, stored at −80 °C and compound levels analyzed by LC-MS.

[19] = target: USP9x (Homo sapiens, UniProt Q93008); test: DUB/cathepsin selectivity biochemical assay

## C[C@@H]1[C@H]2CCN(C(=O)c3ncc(-c4ccnc(C#N)c4)o3)[C@H]2CN1C#N [MTX115325]
[1]; 0.0001 µM
  TOM20 ubiquitylation signal, MTX115325 + AO (Figure 4b): 1.19
[1]; 0.0003 µM
  TOM20 ubiquitylation signal, MTX115325 + AO (Figure 4b): 1.5
[1]; 0.001 µM
  TOM20 ubiquitylation signal, MTX115325 + AO (Figure 4b): 1.43
[1]; 0.003 µM
  TOM20 ubiquitylation signal, MTX115325 + AO (Figure 4b): 1.6
[1]; 0.01 µM
  TOM20 ubiquitylation signal, MTX115325 + AO (Figure 4b): 2.01
[1]; 0.03 µM
  TOM20 ubiquitylation signal, MTX115325 + AO (Figure 4b): 2.55
[1]; 0.1 µM
  TOM20 ubiquitylation signal, MTX115325 + AO (Figure 4b): 3.08
[1]; 0.3 µM
  TOM20 ubiquitylation signal, MTX115325 + AO (Figure 4b): 3.55
[1]; 1 µM
  TOM20 ubiquitylation signal, MTX115325 + AO (Figure 4b): 3.5
[1]; 3 µM
  TOM20 ubiquitylation signal, MTX115325 + AO (Figure 4b): 3.33
[1]; HeLa cells, 90 min, representative concentration-response
  TOM20-Ub 1.5X interpolated value (representative profile, Fig. 4b): 0.0020 µM
[1]; HeLa-PARKIN + A/O, 90 min
  TOM20-Ub EC1.5x: 10 nM
[1]; HeLa cells, 90 min, representative concentration-response, read-out: TOM20-Ub EC50 (representative profile, Fig. 4b)
  EC50: 0.022 µM
[1]; HeLa-PARKIN + A/O, 90 min, read-out: TOM20-Ub EC50
  EC50: 0.032 µM
[2]
  Prefrontal cortex free CMax: 528 nM
[3]
  IC50: > 300 µM
[4]
  IC50: 83.7 µM
[5]
  IC50: 0.013 µM
[6]
  IC50: 120 µM
[7]
  IC50: 42.1 µM
[8]
  IC50: > 300 µM
[9]; A53T neurons, 7 days at 10 nM, 100 nM or 1 µM
  TOM20-ubiquitylation: caused the upregulation of TOM20-ubiquitylation
[9]; A53T αSyn background, 24 h, 1 µM
  TOM20-ubiquitylation: increased TOM20-ubiquitylation
[10]
  IC50: 93.2 µM
[11]
  IC50: > 300 µM
[12]
  IC50: 60.7 µM
[13]
  IC50: > 300 µM
[14]
  IC50: > 300 µM
[15]
  IC50: 212 µM
[16]; 10 mg/kg oral gavage vs 2 mg/kg IV
  bioavailability: 98%
[16]; IV 2 mg/kg
  clearance: 19.7 mL/min/kg
[17]
  IC50: > 300 µM
[18]; 15 mg/kg BID oral
  Blood exposure: 13606 ng·h/mL
  Cmax: 7550 ng/mL
[18]; 15mg/kg, 0 hours
  In-life whole blood compound level (Figure 4d): 0
[18]; 15mg/kg, 0.5 hours
  In-life whole blood compound level (Figure 4d): 6664.93 and 11816.1
[18]; 15mg/kg, 1 hour
  In-life whole blood compound level (Figure 4d): 7008.88 and 8260.64
[18]; 15mg/kg, 2 hours
  In-life whole blood compound level (Figure 4d): 2278.7 and 2189.81
[18]; 15mg/kg, 4 hours
  In-life whole blood compound level (Figure 4d): 404.48 and 419 and 425.15
[18]; 15mg/kg, 6 hours
  In-life whole blood compound level (Figure 4d): 92.39 and 277.42
[18]; 50 mg/kg BID oral
  Blood exposure: 42959 ng·h/mL
  Cmax: 16400 ng/mL
[18]; 50mg/kg, 0 hours
  In-life whole blood compound level (Figure 4d): 0
[18]; 50mg/kg, 0.5 hours
  In-life whole blood compound level (Figure 4d): 12073.7 and 13499.1 and 13769.4
[18]; 50mg/kg, 1 hour
  In-life whole blood compound level (Figure 4d): 13326.8 and 14323.4 and 17878.5
[18]; 50mg/kg, 2 hours
  In-life whole blood compound level (Figure 4d): 8220.29 and 5260.76
[18]; 50mg/kg, 4 hours
  In-life whole blood compound level (Figure 4d): 1244.02 and 1284.38
[18]; 50mg/kg, 6 hours
  In-life whole blood compound level (Figure 4d): 402.46 and 633.68
[19]
  IC50: > 300 µM
